These results are taken from US20230340011A1 (Asteroid Therapeutics, priority 2022, published 2023).

For this assay, the target named is LXRβ (Homo sapiens (Human), UniProt P55055). As to the kind of experiment: In vitro assay LXRβ: PathHunter NHR CHO cells, LXRβ / Steroid Receptor Co-activator Peptide enzyme fragment complementation. The assay is classed as cell-based. To be noted: PathHunter NHR CHO cells, full-length human LXRβ and SRCP, chemiluminescent signal; read-out: LXRβ PPI. The method, boiled down: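 Enzyme fragment complementation read-out: CHO cells stably expressing ProLink-tagged full-length human LXRβ plus nuclear enzyme acceptor–SRCP fusion, seeded and held overnight at 37° C. Medium with charcoal-dextran filtered serum; final vehicle 1%. Chemiluminescence measured after signal generation.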
Sequence of LXRβ (P55055 whole entry, the tested form may be a part): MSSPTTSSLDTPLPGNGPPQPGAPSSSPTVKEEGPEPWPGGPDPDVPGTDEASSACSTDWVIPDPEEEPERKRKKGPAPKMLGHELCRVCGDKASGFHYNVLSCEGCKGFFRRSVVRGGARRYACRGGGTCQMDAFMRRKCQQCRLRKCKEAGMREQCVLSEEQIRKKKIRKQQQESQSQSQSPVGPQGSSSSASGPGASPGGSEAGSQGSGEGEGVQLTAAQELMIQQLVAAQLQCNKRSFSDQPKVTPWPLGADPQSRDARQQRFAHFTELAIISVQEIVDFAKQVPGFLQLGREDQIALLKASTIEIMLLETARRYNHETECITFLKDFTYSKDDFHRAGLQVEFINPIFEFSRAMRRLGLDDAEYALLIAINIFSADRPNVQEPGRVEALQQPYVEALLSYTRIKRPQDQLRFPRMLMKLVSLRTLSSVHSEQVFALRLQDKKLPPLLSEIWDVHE
As to `C[C@H](CCC(=O)N1OCC[C@@H]1C)[C@H]1CC[C@H]2[C@@H]3CC=C4C[C@@H](O)CC[C@]4(C)[C@H]3CC[C@]12C` [Example 57, (R)-4-((3S,8S,9S,10R,13R,14S,17R)-3-hydroxy-10,13-dimethyl-2,3,4,7,8,9,10,11,12,13,14,15,16,17-tetradecahydro-1H-cyclopenta[a]phenanthren-17-yl)-1-((S)-3-methylisoxazolidin-2-yl)pentan-1-one], the EC50 lay in the range of 0.25 to 1 µM.

For the compound `C[C@H](CCC(=O)N1CCC(Oc2ccncc2)CC1)[C@H]1CC[C@H]2[C@@H]3CC=C4C[C@@H](O)CC[C@]4(C)[C@H]3CC[C@]12C` [Example 301, (4R)-4-[(1R,3aS,3bS,7S,9aR,9bS,11aR)-7-hydroxy-9a,11a-dimethyl-1H,2H,3H,3aH,3bH,4H,6H,7H,8H,9H,9aH,9bH,10H,11H,11aH-cyclopenta[a]phenanthren-1-yl]-1-[4-(pyridin-4-yloxy)piperidin-1-yl]pentan-1-one], the EC50 is greater than 10 µM.

Consider `CC(=O)N1CCN(C(=O)CC[C@@H](C)[C@H]2CC[C@H]3[C@@H]4CC=C5C[C@@H](O)CC[C@]5(C)[C@H]4CC[C@]23C)[C@H](C)C1` [Example 275, (4R)-4-[(1R,3aS,3bS,7S,9aR,9bS,11aR)-7-hydroxy-9a,11a-dimethyl-1H,2H,3H,3aH,3bH,4H,6H,7H,8H,9H,9aH,9bH,10H,11H,11aH-cyclopenta[a]phenanthren-1-yl]-1-[(2R)-4-acetyl-2-methylpiperazin-1-yl]pentan-1-one], for which the EC50 is greater than 10 µM.

Take `COC(=O)N1CCN(C(=O)CCC[C@H]2CC[C@H]3[C@@H]4CC=C5C[C@@H](O)CC[C@]5(C)[C@H]4CC[C@]23C)CC1` [Example 283]: the EC50 was greater than 10 µM.

On to `COCCON(C)C(=O)CC[C@@H](C)[C@H]1CC[C@H]2[C@@H]3CC=C4C[C@@H](O)CC[C@]4(C)[C@H]3CC[C@]12C` [Example 27, (R)-4-((3S,8S,9S,10R,13R,14S,17R)-3-hydroxy-10,13-dimethyl-2,3,4,7,8,9,10,11,12,13,14,15,16,17-tetradecahydro-1H-cyclopenta[a]phenanthren-17-yl)-N-(2-methoxyethoxy)-N-methylpentanamide], for which the EC50 lay in the range of 1 to 10 µM.

`COCCCON(C)C(=O)CC[C@@H](C)[C@H]1CC[C@H]2[C@@H]3CC=C4C[C@@H](O)CC[C@]4(C)[C@H]3CC[C@]12C` [Example 31, (R)-4-((3S,8S,9S,10R,13R,14S,17R)-3-hydroxy-10,13-dimethyl-2,3,4,7,8,9,10,11,12,13,14,15,16,17-tetradecahydro-1H-cyclopenta[a]phenanthren-17-yl)-N-(3-methoxypropoxy)-N-methylpentanamide]: the EC50 is 1 to 10 µM.

With `COCCNC(=O)OC[C@@H](C)[C@H]1CC[C@H]2[C@@H]3CC=C4C[C@@H](O)CC[C@]4(C)[C@H]3CC[C@]12C` [Example 460, (2S)-2-[(1R,3aS,3bS,7S,9aR,9bS,11aS)-7-hydroxy-9a,11a-dimethyl-1H,2H,3H,3aH,3bH,4H,6H,7H,8H,9H,9aH,9bH,10H,11H,11aH-cyclopenta[a]phenanthren-1-yl]propyl N-(2-methoxyethyl)carbamate], the EC50 was greater than 10 µM.

In the case of `C[C@H](CCC(=O)N1CCC(Oc2cccnc2)CC1)[C@H]1CC[C@H]2[C@@H]3CC=C4C[C@@H](O)CC[C@]4(C)[C@H]3CC[C@]12C` [Example 219, (R)-4-((3S,8S,9S,10R,13R,14S,17R)-3-hydroxy-10,13-dimethyl-2,3,4,7,8,9,10,11,12,13,14,15,16,17-tetradecahydro-1H-cyclopenta[a]phenanthren-17-yl)-1-(4-(pyridin-3-yloxy)piperidin-1-yl)pentan-1-one], the EC50 is greater than 10 µM.

Take `C[C@@H]1CCN(C(=O)CC[C@@H](C)[C@H]2CC[C@H]3[C@@H]4CC=C5C[C@@H](O)CC[C@]5(C)[C@H]4CC[C@]23C)O1` [Example 59, (R)-4-((3S,8S,9S,10R,13R,14S,17R)-3-hydroxy-10,13-dimethyl-2,3,4,7,8,9,10,11,12,13,14,15,16,17-tetradecahydro-1H-cyclopenta[a]phenanthren-17-yl)-1-((R)-5-methylisoxazolidin-2-yl)pentan-1-one]: the EC50 lay in the range of 0.25 to 1 µM.
